pIC50: −log10 of the molar value. Where two headings read alike, the source gives them in different places.
What was measured:
[1] = test system: HCV replicon 1AY93H; test: Cell-based HCV Replicon Assay A, replicon 1AY93H
Procedure, shortened: (§1)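 Readout: replicon RNA by real-time RT-PCR, normalised to co-amplified cyclophilin and quantified against replicon total-RNA standard curves. Cells (2000/well) treated 3 days in medium with 5% FBS and 0.5% DMSO, compound in 10 serial dilutions from starting concentrations of 333.3 nM to 1.667 nM.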

[2] = test system: HCV replicon 2B; test: Cell-based HCV Replicon Assay A, replicon 2B
Procedure, shortened: as §1

[3] = test system: HCV replicon 1AQ30D; test: Cell-based HCV Replicon Assay B, replicon 1AQ30D
Procedure, shortened: (§2)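 EC50 defined as the drug concentration giving a CT increase of 1 above projected baseline, from real-time RT-PCR of replicon RNA using genotype-specific primers and probes. Cells were seeded in 5% FBS, dosed after 24 h and incubated 3 days before lysis.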

[4] = test system: HCV replicon 1A; test: Cell-based HCV Replicon Assay A, replicon 1A
Procedure, shortened: as §1

[5] = test system: HCV replicon 1B; test: Cell-based HCV Replicon Assay B, replicon 1B
Procedure, shortened: as §2

[6] = read-out: 1A Y93H IC50, replicon 1AY93H
[7] = read-out: 1A Q30D IC50, replicon 1AQ30D
[8] = replicon 1AY93H, read-out: 1A Y93H IC50
[9] = replicon 1AQ30D, read-out: 1A Q30D IC50

## COC(=O)NC(C(=O)N1CCC[C@H]1c1ncc(-c2ccc3c(c2)cc2n3C(c3cnc(C4CC4)s3)Oc3cc(-c4cnc([C@@H]5CCCN5C(=O)[C@@H](NC(=O)OC)C(C)C)[nH]4)cc(F)c3-2)[nH]1)C1CCOC(C)(C)C1 (single isomer, unassigned) [Compound 308]
[1]; [6]
  pIC50: 10.12
[2]; read-out: 2B IC50, replicon 2B
  pIC50: 10.33
[3]; [7]
  pIC50: 9.30
[4]
  pIC50: 11.39
[5]; Hepatitis C virus
  pIC50: 11.52

## COC(=O)NC(C(=O)N1CCC[C@H]1c1ncc(-c2ccc3c(c2)cc2n3C(c3cnc(C4CC4)s3)Oc3cc(-c4cnc([C@@H]5CCCN5C(=O)[C@@H](NC(=O)OC)C(C)C)[nH]4)cc(F)c3-2)[nH]1)C1CCOC(C)(C)C1 (single isomer, unassigned) [Compound 309]
[1]; [6]
  pIC50: 10.66
[2]; read-out: 2B IC50, replicon 2B
  pIC50: 11.52
[3]; [7]
  pIC50: 10.33
[4]
  pIC50: 11.74
[5]
  pIC50: 11.22

## COC(=O)NC(C(=O)N1[C@@H]2C[C@@H]2C[C@H]1c1ncc(-c2ccc3c(c2)cc2n3C(c3cnc(C4CC4)s3)Oc3cc(-c4cnc([C@@H]5CCCN5C(=O)[C@@H](NC(=O)OC)C(C)C)[nH]4)cc(F)c3-2)[nH]1)C1C[C@@H](C)O[C@@H](C)C1 (single isomer, unassigned) [Compound 310]
[1]; [6]
  pIC50: 10.02
[2]; read-out: 2B IC50, replicon 2B
  pIC50: 9.92
[3]; [7]
  pIC50: 9.09
[4]; Hepatitis C virus
  pIC50: 11.59
[5]; Hepatitis C virus
  pIC50: 11.52

## COC(=O)NC(C(=O)N1[C@@H]2C[C@@H]2C[C@H]1c1ncc(-c2ccc3c(c2)cc2n3C(c3cnc(C4CC4)s3)Oc3cc(-c4cnc([C@@H]5CCCN5C(=O)[C@@H](NC(=O)OC)C(C)C)[nH]4)cc(F)c3-2)[nH]1)C1C[C@@H](C)O[C@@H](C)C1 (single isomer, unassigned) [Compound 311]
[1]; [6]
  pIC50: 11.72
[2]; read-out: 2B IC50, replicon 2B
  pIC50: 11.52
[3]; [7]
  pIC50: 10.96
[4]
  pIC50: 11.70
[5]
  pIC50: 11.70

## COC(=O)NC(C(=O)N1CCCC1c1ncc(-c2cc(F)c3c(c2)OC(c2cnc(C4CCCC4)s2)n2c-3cc3cc(-c4cnc(C5CC6CC6N5C(=O)C(NC(=O)OC)C(C)C)[nH]4)ccc32)[nH]1)C(C)C (single isomer, unassigned) [Compound 319]
[1]; [8]
  pIC50: 11.54
[2]; replicon 2B, read-out: 2B IC50
  pIC50: 10.77
[3]; [9]
  pIC50: 10.29
[4]
  pIC50: 11.60
[5]
  pIC50: 11.52

## COC(=O)NC(C(=O)N1CCCC1c1ncc(-c2cc(F)c3c(c2)OC(c2cnc(C4CCCC4)s2)n2c-3cc3cc(-c4cnc(C5CC6CC6N5C(=O)C(NC(=O)OC)C(C)C)[nH]4)ccc32)[nH]1)C(C)C (single isomer, unassigned) [Compound 320]
[1]; [8]
  pIC50: 10.44
[2]; replicon 2B, read-out: 2B IC50
  pIC50: 9.69
[3]; [9]
  pIC50: 9.23
[4]
  pIC50: 11.77
[5]
  pIC50: 11.52

## COC(=O)NC(C(=O)N1[C@@H]2C[C@@H]2C[C@H]1c1ncc(-c2ccc3c(c2)cc2n3C(c3cnc(C4CCCC4)s3)Oc3cc(-c4cnc([C@@H]5CCCN5C(=O)[C@@H](NC(=O)OC)C(C)C)[nH]4)cc(F)c3-2)[nH]1)C1CCOC(C)(C)C1 (single isomer, unassigned) [Compound 321]
[1]; [6]
  pIC50: 11.72
[2]; read-out: 2B IC50, replicon 2B
  pIC50: 11.40
[3]; [7]
  pIC50: 11.15
[4]; Hepatitis C virus
  pIC50: 11.54
[5]; Hepatitis C virus
  pIC50: 11.52

## COC(=O)NC(C(=O)N1[C@@H]2C[C@@H]2C[C@H]1c1ncc(-c2ccc3c(c2)cc2n3C(c3cnc(C4CCCC4)s3)Oc3cc(-c4cnc([C@@H]5CCCN5C(=O)[C@@H](NC(=O)OC)C(C)C)[nH]4)cc(F)c3-2)[nH]1)C1CCOC(C)(C)C1 (single isomer, unassigned) [Compound 322]
[1]; [6]
  pIC50: 10.29
[2]; read-out: 2B IC50, replicon 2B
  pIC50: 10.24
[3]; [7]
  pIC50: 9.49
[4]
  pIC50: 11.57
[5]
  pIC50: 11.40

## COC(=O)N[C@H](C(=O)N1CCC[C@H]1c1ncc(-c2cc(F)c3c(c2)OC(c2cnc(-c4ccncc4)s2)n2c-3cc3cc(-c4cnc([C@@H]5CCCN5C(=O)[C@@H](NC(=O)OC)C(C)C)[nH]4)ccc32)[nH]1)C(C)C (single isomer, unassigned) [Compound 409]
[1]; Hepatitis C virus, read-out: 1A Y93H IC50 (nM), replicon 1AY93H
  IC50: 0.577 nM
[2]; Hepatitis C virus, read-out: 2B IC50 (nM), replicon 2B
  IC50: 1.28 nM
[3]; Hepatitis C virus, read-out: 1A Q30D IC50 (nM), replicon 1AQ30D
  IC50: 5.1 nM
[4]; Hepatitis C virus
  pIC50: 10.97
[5]; Hepatitis C virus
  pIC50: 11.15

## COC(=O)NC(C(=O)N1[C@@H]2C[C@@H]2C[C@H]1c1ncc(-c2ccc3c(c2)cc2n3C(c3cnc(CC(C)C)s3)Oc3cc(-c4cnc([C@@H]5CCCN5C(=O)[C@@H](NC(=O)OC)C(C)C)[nH]4)cc(F)c3-2)[nH]1)C1CCOC(C)(C)C1 (single isomer, unassigned) [Compound 437]
[1]; [8]
  pIC50: 9.75
[2]; replicon 2B, read-out: 2B IC50
  pIC50: 9.68
[3]; [9]
  pIC50: 9.55
[4]
  pIC50: 11.66
[5]
  pIC50: 11.51
